Assay results as given in US4526892A, “Dimethylaminoalkyl-3-(ergoline-8'βcarbonyl)-ureas” (Farmitalia Carlo Erba, S.p.A., priority 1982, dated 1985).
Like-named read-outs stand apart in the source and are kept apart here.

Experiments:
[1] = system: spontaneously hypertensive male rats, strain SHR; experiment: Change in heart rate (HR) in SHR rats; type: in vivo, rat
Protocol: (§1) Four spontaneously hypertensive male rats, strain SHR, weighing 250-300 g for each group were used. The animals were treated once a day for four consecutive days. Drugs were administered by gastric gavage, suspended in 5% gum arabic (0.2 ml/100 g body weight) and blood pressure (BP) and heart rate (HR) were measured by indirected tail/cuff method (BP Recorder W+W). Blood pressure and heart rate were measured on the first and fourth days of treatment 1 hour before and 1 and 5 hours after drug administration. Hydralazine and α-methyl-Dopa were used as reference drugs.

[2] = system: spontaneously hypertensive male rats, strain SHR; experiment: Anti-hypertensive activity: change in blood pressure (BP) in SHR rats; type: in vivo, rat
Protocol: as §1

Emetic activity in dogs = details: dog, in vivo, po, observed for 6 hours; read-out: Emetic activity in dogs ED50
From the text: The emetic activity of the compounds was investigated by oral administration to male beagle dogs weighing 15-20 kg. […] Four to six animals per dose were employed for the ED50 evaluation. […] The emetic activity of the compounds is similar or lower than that of Bromocriptine. The ratio between activity and tolerance of the new ergoline derivatives accordingly is very high.

prolactin secretion = experiment: Anti-prolactin activity: egg-nidation inhibition in rats; type: in vivo, rat (Sprague Dawley); details: Rattus norvegicus, po, 120 h, read-out: Nidation inhibition in rats ED50
From the text: The prolactin secretion inhibitory action of the compounds has been indirectly evaluated by determining the egg-nidation inhibitory action in rats. For the ergoline derivatives this activity is considered to be correlated with the anti-prolactin activity (E. FLUCKIGER and E. DEL POZO,Handb. exp. Pharmac. 49, 615, 1978), since prolactin is the only hypophysial hormone involved in the maintenance of the first part of pregnancy in rats (W. K. MORISHIGE and I. ROTHCHILD, Endocrinology 95, 260, 1974).
Pregnant Sprague Dawley rats weighing 200-250 g were used. The compounds to be tested, dissolved in diluted mineral acids, were administered orally to groups from six to eight rats on day 5 of pregnancy. The animals were sacrificed on day 14 and the uteri were examined. The absence of implantation sites was taken as the criterion of anti-prolactin activity. Several doses were tested for the ED50 evaluation. As reference standard Bromocriptine was used.

[3] = 0.1 mg/kg os, 1st day, 1 hour after dosing
[4] = 0.1 mg/kg os, 1st day, 5 hours after dosing
[5] = 0.1 mg/kg os, 4th day, 1 hour after dosing
[6] = 0.1 mg/kg os, 4th day, 5 hours after dosing
[7] = 1 mg/kg os, 1st day, 1 hour after dosing
[8] = 1 mg/kg os, 1st day, 5 hours after dosing
[9] = 1 mg/kg os, 4th day, 1 hour after dosing
[10] = 1 mg/kg os, 4th day, 5 hours after dosing
[11] = 10 mg/kg os, 1st day, 1 hour after dosing
[12] = 10 mg/kg os, 1st day, 5 hours after dosing
[13] = 10 mg/kg os, 4th day, 1 hour after dosing
[14] = 10 mg/kg os, 4th day, 5 hours after dosing
[15] = 5 mg/kg os, 1st day, 1 hour after dosing
[16] = 5 mg/kg os, 1st day, 5 hours after dosing
[17] = 5 mg/kg os, 4th day, 1 hour after dosing
[18] = 5 mg/kg os, 4th day, 5 hours after dosing
[19] = 0.5 mg/kg os, 1st day, 1 hour after dosing
[20] = 0.5 mg/kg os, 1st day, 5 hours after dosing
[21] = 0.5 mg/kg os, 4th day, 1 hour after dosing
[22] = 0.5 mg/kg os, 4th day, 5 hours after dosing
[23] = os, all tested doses of the compound
[24] = 12.5 mg/kg os, 1st day, 1 hour after dosing
[25] = 12.5 mg/kg os, 1st day, 5 hours after dosing
[26] = 12.5 mg/kg os, 4th day, 1 hour after dosing
[27] = 12.5 mg/kg os, 4th day, 5 hours after dosing
[28] = 2 mg/kg os, 1st day, 1 hour after dosing
[29] = 2 mg/kg os, 1st day, 5 hours after dosing
[30] = 2 mg/kg os, 4th day, 1 hour after dosing
[31] = 2 mg/kg os, 4th day, 5 hours after dosing

CO[C@]12C[C@@H](C(=O)N(C(=O)NC(C)(C)C)C(C)(C)C)CN(C)[C@@H]1Cc1cn(C)c3cccc2c13 [Example 17]
Change in HR [1, 3]: -2 beats/minute | Change in HR [1, 4]: +3 beats/minute | Change in HR [1, 5]: -4 beats/minute | Change in HR [1, 6]: -8 beats/minute | Change in HR [1, 7]: -20 beats/minute | Change in HR [1, 8]: -23 beats/minute | Change in HR [1, 9]: -27 beats/minute | Change in HR [1, 10]: -22 beats/minute | Change in HR [1, 11]: +15 beats/minute | Change in HR [1, 12]: -13 beats/minute | Change in HR [1, 13]: -2 beats/minute | Change in HR [1, 14]: +6 beats/minute | Effect on BP (in words) ([2]; 0.1 mg/kg b.w.): No effect | Change in BP [2, 3]: -5 mmHg | Change in BP [2, 4]: -7 mmHg | Change in BP [2, 5]: -4 mmHg | Change in BP [2, 6]: -10 mmHg | Change in BP [2, 7]: -20 mmHg | Change in BP [2, 8]: -19 mmHg | Change in BP [2, 9]: -43 mmHg | Change in BP [2, 10]: -66 mmHg | Effect on BP (in words) ([2]; 10 mg/kg b.w., 1st and 4th day): dose related as well as very marked | Change in BP [2, 12]: -60 mmHg | Change in BP [2, 13]: -59 mmHg | Change in BP [2, 14]: -93 mmHg | Hypotensive activity vs Hydralazine ([2]; compound 1 mg/kg vs Hydralazine 5 mg/kg, 4th day): much more remarkable | Hypotensive activity vs Hydralazine ([2]; compound 1 mg/kg vs Hydralazine 5 mg/kg, first day): comparable to that of Hydralazine | Hypotensive effect vs Hydralazine ([2]; compound 10 mg/kg b.w., 1st and 4th days): hypotensive effect larger than Hydralazine

NNc1nncc2ccccc12 [Hydralazine, reference compound]
Change in HR [1, 7]: +30 beats/minute | Change in HR [1, 8]: +35 beats/minute | Change in HR [1, 9]: +25 beats/minute | Change in HR [1, 10]: +15 beats/minute | Change in HR [1, 15]: +40 beats/minute | Change in HR [1, 16]: +45 beats/minute | Change in HR [1, 17]: +18 beats/minute | Change in HR [1, 18]: +15 beats/minute | Effect on HR (in words) ([1]; SHR rats, os): increase of HR | Change in BP [2, 7]: -5 mmHg | Change in BP [2, 8]: -15 mmHg | Change in BP [2, 9]: -5 mmHg | Change in BP [2, 10]: 0 mmHg | Change in BP [2, 15]: -40 mmHg | Change in BP [2, 16]: -20 mmHg | Change in BP [2, 17]: -20 mmHg | Change in BP [2, 18]: -7 mmHg

CCNC(=O)N(CCCN(C)C)C(=O)[C@@H]1C[C@@H]2c3cccc4[nH]cc(c34)C[C@H]2N(C)C1 [Example 13, 1-ethyl-3-(3'-dimethylaminopropyl)-3(6'-methylergoline-8'β-carbonyl)-urea]
TD50 at 6 h (Emetic activity in dogs): 0.01 mg/kg | ED50 (prolactin secretion): 0.3 mg/kg

CCCN1C[C@H](C(=O)N(C(=O)NC(C)C)C(C)C)C[C@@H]2c3cccc4[nH]cc(c34)C[C@H]21 [Example 5, 1,3-diisopropyl-3-(6'-n-propylergoline-8'β-carbonyl)-urea]
TD50 at 6 h (Emetic activity in dogs): 0.01 mg/kg | ED50 (prolactin secretion; p.o., day 5 of pregnancy): 0.02 mg/kg

CC(C)NC(=O)N(C(=O)[C@@H]1C[C@@H]2c3cccc4[nH]cc(c34)C[C@H]2N(C)C1)C(C)C [Example 1, 1,3-diisopropyl-3-(6'-methylergoline-8'β-carbonyl)urea]
Change in HR [1, 19]: -20 beats/minute | Change in HR [1, 20]: -12 beats/minute | Change in HR [1, 21]: -20 beats/minute | Change in HR [1, 22]: -7 beats/minute | Change in HR [1, 7]: -30 beats/minute | Change in HR [1, 8]: -35 beats/minute | Change in HR [1, 9]: -35 beats/minute | Change in HR [1, 10]: -30 beats/minute | Change in BP [2, 19]: -27 mmHg | Change in BP [2, 20]: -20 mmHg | Change in BP [2, 21]: -20 mmHg | Change in BP [2, 22]: 0 mmHg | Change in BP [2, 7]: -40 mmHg | Change in BP [2, 8]: -37 mmHg | Change in BP [2, 9]: -40 mmHg | Change in BP [2, 10]: -32 mmHg | Hypotensive activity vs Hydralazine ([2]; doses not stated): greater and longer lasting hypotensive activity than Hydralazine | Effect on BP (in words) [2, 23]: marked decrease of BP in a dose dependent manner

C=CCN1C[C@H](C(=O)N(C)C(=O)NC)C[C@@H]2c3cccc4[nH]cc(c34)C[C@H]21 [Example 24, 1,3-Dimethyl-3-(6'-allylergoline-8'β-carbonyl)-urea]
ED50 (prolactin secretion; p.o., day 5 of pregnancy): 0.5 mg/kg

CN1C[C@H](C(=O)N(C(=O)NC(C)(C)C)C(C)(C)C)C[C@@H]2c3cccc4c3c(cn4C)C[C@H]21 [Example 18, 1,3-di-tert-butyl-3-(1',6'-dimethylergoline-8'β-carbonyl)urea]
Change in HR [1, 7]: -22 beats/minute | Change in HR [1, 8]: -20 beats/minute | Change in HR [1, 9]: +7 beats/minute | Change in HR [1, 10]: -8 beats/minute | Change in HR [1, 24]: -10 beats/minute | Change in HR [1, 25]: -15 beats/minute | Change in HR [1, 26]: +2 beats/minute | Change in HR [1, 27]: +5 beats/minute | Change in BP [2, 7]: -15 mmHg | Change in BP [2, 8]: -10 mmHg | Change in BP [2, 9]: -8 mmHg | Change in BP [2, 10]: -14 mmHg | Effect on BP (in words) ([2]; 12.5 mg/kg b.w. (highest dose), 4th day): very remarkable on the 4th day of treatment and still lasting 5 hours after administration | Change in BP [2, 24]: -19 mmHg | Change in BP [2, 25]: -19 mmHg | Change in BP [2, 26]: -38 mmHg | Change in BP [2, 27]: -47 mmHg | Hypotensive activity vs Hydralazine ([2]; compound 12.5 mg/kg vs Hydralazine 5 mg/kg, 4th day): much more remarkable | Hypotensive activity vs Hydralazine ([2]; compound 12.5 mg/kg vs Hydralazine 5 mg/kg, first day): comparable to that of Hydralazine | Effect on BP (in words) [2, 23]: reduced BP with both the tested doses (12.5 and 1 mg/kg b.w.); this effect was dose dependent

C=CCN1C[C@H](C(=O)N(CC)C(=O)NCCCN(C)C)C[C@@H]2c3cccc4[nH]cc(c34)C[C@H]21 [Example 20, 1-(3'-dimethylaminopropyl)-3-ethyl-3-(6'-allylergoline-8'β-carbonyl)-urea]
ED50 (prolactin secretion; p.o., day 5 of pregnancy): 0.27 mg/kg

C=CCN1C[C@H](C(=O)N(CCCN(C)C)C(=O)NCC)C[C@@H]2c3cccc4[nH]cc(c34)C[C@H]21 [Example 19, 1-ethyl-3-(3'-dimethylaminopropyl)-3-(6'-allylergoline-8'βcarbonyl)-urea]
TD50 at 6 h (Emetic activity in dogs): 0.02 mg/kg | ED50 (prolactin secretion; p.o., day 5 of pregnancy): 0.03 mg/kg

CCCN1C[C@H](C(=O)N(CCCN(C)C)C(=O)NCC)C[C@@H]2c3cccc4[nH]cc(c34)C[C@H]21 [Example 21, 1-ethyl-3-(3'-dimethylaminopropyl)-3-(6'-n-propylergoline-8'β-carbonyl)-urea]
TD50 at 6 h (Emetic activity in dogs): 0.02 to 0.04 mg/kg | ED50 (prolactin secretion; p.o., day 5 of pregnancy): 0.02 mg/kg

CC(C)C[C@H]1C(=O)N2CCC[C@H]2[C@]2(O)O[C@](NC(=O)[C@@H]3C=C4c5cccc6[nH]c(Br)c(c56)C[C@H]4N(C)C3)(C(C)C)C(=O)N12 [2-bromo-α-ergocryptine, reference compound]
TD50 at 6 h (Emetic activity in dogs): 0.01 to 0.02 mg/kg | ED50 (prolactin secretion): 5.7 mg/kg

CO[C@]12C[C@@H](C(=O)N(C(=O)NC(C)(C)C)C(C)(C)C)CN(C)[C@@H]1Cc1c[nH]c3cccc2c13 [Example 12, 1,3-di-t-butyl-3-(10'αmethoxy-6'-methylergoline-8'β-carbonyl)-urea]
Change in HR [1, 28]: -10 beats/minute | Change in HR [1, 29]: -10 beats/minute | Change in HR [1, 30]: -20 beats/minute | Change in HR [1, 31]: -12 beats/minute | Change in HR [1, 11]: 0 beats/minute | Change in HR [1, 12]: -30 beats/minute | Change in HR [1, 13]: +17 beats/minute | Change in HR [1, 14]: -10 beats/minute | Change in BP [2, 28]: -17 mmHg | Change in BP [2, 29]: -17 mmHg | Change in BP [2, 30]: -10 mmHg | Change in BP [2, 31]: -24 mmHg | Tolerance on the 4th day ([2]; 10 mg/kg): tolerance does not occur | Change in BP [2, 11]: -26 mmHg | Change in BP [2, 12]: -37 mmHg | Change in BP [2, 13]: -71 mmHg | Change in BP [2, 14]: -28 mmHg | Hypotensive activity vs Hydralazine ([2]; compound 10 mg/kg vs Hydralazine 5 mg/kg, 1st day): comparable activity to that of Hydralazine | Hypotensive activity vs Hydralazine ([2]; compound 10 mg/kg vs Hydralazine 5 mg/kg, 4th day): greater activity on the 4th day | Effect on BP (in words) [2, 23]: reduced BP in a dose dependent manner
